Experimental data from patent US10752587B2, “Homobispiperidinyl derivatives as liver X receptor beta agonists, compositions and their use” (Merck Sharp & Dohme Corp., priority 2015, dated 2020).

What was measured:
[1] = target: T1, glutathione-S-transferase (GST) tagged LXRbeta LBD (ligand binding domain) (Homo sapiens, UniProt P55055); assay: LanthaScreen TR-FRET Liver X Receptor Coactivator Assay, co-activator recruitment to LXRbeta LBD; assay type: biochemical; conditions: for Emax: efficacy at max dose, in relation to reference dual agonist T0901317, read-out: LXR beta Activity @ max dose (%); for EC50: potency (Inflection Point, IP), co-activator recruitment to LXRbeta LBD, in relation to T0901317, read-out: LXR beta IP
T1 construct: purchased Invitrogen pv4658.pps
T1 sequence (P55055 222-460 limits assumed): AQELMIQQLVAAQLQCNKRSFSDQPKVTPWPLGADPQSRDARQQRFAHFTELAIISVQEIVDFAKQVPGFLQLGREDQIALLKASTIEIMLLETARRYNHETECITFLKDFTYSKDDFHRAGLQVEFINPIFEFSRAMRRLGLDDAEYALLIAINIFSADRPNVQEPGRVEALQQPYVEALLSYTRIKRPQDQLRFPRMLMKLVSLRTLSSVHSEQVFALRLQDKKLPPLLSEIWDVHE
In short: (§1)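 Readout is time-resolved FRET between a terbium anti-GST antibody bound to the LBD and a fluorescein-tagged coactivator peptide recruited on ligand binding. Plates were incubated at room temperature before reading. Potency (IP) and efficacy (Emax) are referenced to T0901317.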

[2] = target: T2, glutathione-S-transferase (GST) tagged LXRalpha LBD (ligand binding domain) (Homo sapiens, UniProt Q13133); assay: LanthaScreen TR-FRET Liver X Receptor Coactivator Assay, co-activator recruitment to LXRalpha LBD; assay type: biochemical; conditions: for Emax: efficacy at max dose, in relation to reference dual agonist T0901317, read-out: LXR alpha Activity @ max dose (%); for EC50 / LXR alpha IP (nM): potency (Inflection Point, IP), co-activator recruitment to LXRalpha LBD, in relation to T0901317; for EC50: read-out: LXR alpha IP
T2 construct: purchased Invitrogen pv4655
T2 sequence (Q13133 209-447 limits assumed): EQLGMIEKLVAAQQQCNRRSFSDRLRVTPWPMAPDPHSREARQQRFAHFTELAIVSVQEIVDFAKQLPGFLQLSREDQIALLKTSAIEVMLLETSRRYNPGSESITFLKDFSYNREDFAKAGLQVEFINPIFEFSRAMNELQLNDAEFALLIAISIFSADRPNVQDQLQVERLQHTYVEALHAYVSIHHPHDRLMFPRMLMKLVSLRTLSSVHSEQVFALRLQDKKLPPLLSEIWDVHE
In short: as §1

Row | Structure (SMILES) | Emax [1] | EC50 [1] | Emax [2] | EC50 [2] | LXR alpha IP (nM) [2]
1 | CNC(=O)c1ccc(N2CCC(CC3CCN(C(=O)[C@](O)(c4ccccc4F)C(F)(F)F)CC3)CC2)nc1Cl [Example 7-145, 2-chloro-N-methyl-6-[4-({1-[(2R)-3,3,3-trifluoro-2-(2-fluorophenyl)-2-hydroxypropanoyl]piperidin-4-yl}methyl)piperidin-1-yl]pyridine-3-carboxamide] | 115% | 0.023 µM | 47% | 0.791 µM | 
2 | CC(C)c1cccc(C(O)(C(=O)N2CCC(CC3CCN(c4ccc(C(=O)N(C)C)c(Cl)n4)CC3)CC2)C(F)(F)F)c1 (stereo not drawn) [Example 7-84, 2-chloro-N,N-dimethyl-6-{4-[(1-{3,3,3-trifluoro-2-hydroxy-2-[3-(1-methylethyl)phenyl]propanoyl}piperidin-4-yl)methyl]piperidin-1-yl}pyridine-3-carboxamide] | 54% | 0.013 µM | 11% |  | NO IP
3 | CC(C)Oc1cccc(C(O)(C(=O)N2CCC(CC3CCN(c4ccc(C(=O)N(C)C)c(Cl)n4)CC3)CC2)C(F)(F)F)c1 (stereo not drawn) [Example 7-76, 2-chloro-N,N-dimethyl-6-{4-[(1-{3,3,3-trifluoro-2-hydroxy-2-[3-(1-methylethoxy)phenyl]propanoyl}piperidin-4-yl)methyl]piperidin-1-yl}pyridine-3-carboxamide] | 56% | 0.01 µM | 10% |  | NO IP
4 | Cc1cc(N2CCC(CC3(C)CCN(C(=O)[C@](O)(c4cccc(OC(C)C)c4)C(F)(F)F)CC3)CC2)ccc1C(=O)N(C)C [Example 2-77, N,N,2-trimethyl-4-{4-[(4-methyl-1-{(2R)-3,3,3-trifluoro-2-hydroxy-2-[3-(1-methylethoxy)phenyl]propanoyl}piperidin-4-yl)methyl]piperidin-1-yl}benzamide] | 44% | 0.045 µM | 2% |  | NO IP
5 | CN(C)C(=O)c1ccc(N2CCC(OC3CCN(C(=O)C4(c5ccccc5)CCC4)CC3)CC2)cc1Cl [Example 2-27, 2-chloro-N,N-dimethyl-4-[4-({1-[(1-phenyl-cyclobutyl)carbonyl]piperidin-4-yl}oxy)piperidin-1-yl]benzamide] | 82% | 0.371 µM | 19% | 4.62 µM | 
6 | COc1cc(F)cc([C@@](O)(C(=O)N2CCC(C)(CC3CCN(c4ccc(C(=O)N(C)C)c(Cl)c4)CC3)CC2)C(F)(F)F)c1 [Example 2-49, 2-chloro-N,N-dimethyl-4-[4-({4-methyl-1-[(2R)-3,3,3-trifluoro-2-(3-fluoro-5-methoxyphenyl)-2-hydroxy-propanoyl]piperidin-4-yl}methyl)piperidin-1-yl]benzamide] | 59% | 0.006 µM | 5% |  | NO IP
7 | CNC(=O)c1ccc(N2CCC(CC3CCN(C(=O)[C@](O)(c4cccc(OC)c4)C(F)(F)F)CC3)CC2)nc1Cl [Example 7-135, 2-chloro-N-methyl-6-[4-({1-[(2R)-3,3,3-trifluoro-2-hydroxy-2-(3-methoxyphenyl)propanoyl]piperidin-4-yl}methyl)piperidin-1-yl]pyridine-3-carboxamide] | 81% | 0.013 µM | 14% |  | NO IP
8 | CN(Cc1cncs1)C(=O)c1ccc(N2CCC(CC3CCN(C(=O)[C@](O)(c4ccccc4)C(F)(F)F)CC3)CC2)cc1Cl [Example 4-20, 2-chloro-N-methyl-N-(1,3-thiazol-5-ylmethyl)-4-[4-({1-[(2R)-3,3,3-trifluoro-2-hydroxy-2-phenylpropanoyl]piperidin-4-yl}methyl)piperidin-1-yl]benzamide] | 63% | 0.095 µM | 34% | 0.541 µM | 
9 | CN(C)C(=O)c1ccc(N2CCC(CC3(C)CCN(C(=O)[C@](O)(c4cccc(F)c4)C(F)(F)F)CC3)CC2)cc1Cl [Example 2-57, 2-chloro-N,N-dimethyl-4-[4-({4-methyl-1-[(2R)-3,3,3-trifluoro-2-(3-fluorophenyl)-2-hydroxy-propanoyl]piperidin-4-yl}methyl)piperidin-1-yl]benzamide] | 67% | 0.005 µM | 27% | 0.037 µM | 
10 | CN(C)C(=O)c1ccc(N2CCC(CC3CCN(C(=O)[C@](O)(c4cccc(F)c4)C(F)F)CC3)CC2)cc1Cl [Example 2-164, 2-chloro-4-[4-({1-[(2R)-3,3-difluoro-2-(3-fluorophenyl)-2-hydroxy-propanoyl]piperidin-4-yl}methyl)piperidin-1-yl]-N,N-dimethyl-benzamide] | 70% | 0.012 µM | 29% | 0.294 µM | 
11 | CN(C)C(=O)c1ccc(N2CCC(CC3CN(C(=O)[C@](O)(c4cccc(Cl)c4)C(F)(F)F)C3)CC2)nc1Cl [Example 7-41, 2-chloro-6-[4-({1-[(2R)-2-(3-chlorophenyl)-3,3,3-trifluoro-2-hydroxypropanoyl]azetidin-3-yl}methyl)piperidin-1-yl]-N,N-dimethylpyridine-3-carboxamide] | 110% | 0.011 µM | 35% | 0.525 µM | 
12 | CCOc1cccc([C@@](O)(C(=O)N2CCC(CC3CCN(c4ccc(C(=O)N(C)C)cc4)CC3)CC2)C(F)(F)F)c1 [Example 2-145, 4-[4-({1-[(2R)-2-(3-ethoxy-phenyl)-3,3,3-trifluoro-2-hydroxy-propanoyl]piperidin-4-yl}methyl)piperidin-1-yl]-N,N-dimethyl-benzamide] | 54% | 0.073 µM | 4% |  | NO IP
13 | O=C(c1ccc(N2CCC(CC3CCN(C(=O)[C@](O)(c4ccccc4)C(F)(F)F)CC3)CC2)cc1Cl)N1CCC(c2ccncc2)C1 (stereo partly drawn) [Example 4-17, (2R)-3-{4-[(1-{3-chloro-4-[(3-pyridin-4-ylpyrrolidin-1-yl)carbonyl]phenyl}piperidin-4-yl)methyl]piperidin-1-yl}-1,1,1-trifluoro-3-oxo-2-phenylpropan-2-ol] | 45% | 0.27 µM | 27% | 1.02 µM | 
14 | CNC(=O)c1ccc(N2CCC(CC3CCN(C(=O)[C@](O)(c4cccc(OC)c4)C(F)(F)C(F)(F)F)CC3)CC2)nc1Cl [Example 7-138, 2-chloro-N-methyl-6-[4-({1-[(2R)-3,3,4,4,4-pentafluoro-2-hydroxy-2-(3-methoxyphenyl)butanoyl]piperidin-4-yl}methyl)piperidin-1-yl]pyridine-3-carboxamide] | 102% | 0.03 µM | 39% | 0.424 µM | 
15 | COc1cccc([C@@](O)(C(=O)N2CCC(CC3CCN(c4cnc(C(=O)N(C)C)c(C)c4)CC3)CC2)C(F)(F)F)c1 [Example 2-2, N,N,3-trimethyl-5-[4-({1-[(2R)-3,3,3-trifluoro-2-hydroxy-2-(3-methoxy-phenyl)propanoyl]piperidin-4-yl}methyl)piperidin-1-yl]pyridine-2-carboxamide] | 43% | 0.155 µM | 5% |  | NO IP
16 | CCOc1cccc([C@@](O)(C(=O)N2CC(CC3CCN(c4ccc(C(=O)N(C)C)c(Cl)c4)CC3)C2)C(F)(F)F)c1 [Example 2-62, 2-chloro-4-[4-({1-[(2R)-2-(3-ethoxy-phenyl)-3,3,3-trifluoro-2-hydroxy-propanoyl]azetidin-3-yl}methyl)piperidin-1-yl]-N,N-dimethyl-benzamide] | 71% | 0.02 µM | 0% |  | NO IP
17 | CCOc1cccc([C@@](O)(C(=O)N2CCC(CC3CCN(c4ccc(C(=O)N(C)C)c(Cl)c4)CC3)CC2)C(F)(F)F)c1 [Example 2-92, 2-chloro-4-[4-({1-[(2R)-2-(3-ethoxyphenyl)-3,3,3-trifluoro-2-hydroxy-propanoyl]piperidin-4-yl}methyl)piperidin-1-yl]-N,N-dimethyl-benzamide] | 56% | 0.012 µM | 3% |  | NO IP
18 | CCc1cccc([C@@](O)(C(=O)N2CCC(C)(CC3CCN(c4ccc(C(=O)N(C)C)c(Cl)n4)CC3)CC2)C(F)(F)F)c1 [Example 7-49, 2-chloro-6-[4-({1-[(2R)-2-(3-ethylphenyl)-3,3,3-trifluoro-2-hydroxypropanoyl]-4-methylpiperidin-4-yl}methyl)piperidin-1-yl]-N,N-dimethylpyridine-3-carboxamide] | 40% | 0.006 µM | 8% |  | NO IP
